Reference: patent US4992444A, “Antifolate agents” (priority 1986, dated 1991)
Like-named read-outs stand apart in the source and are kept apart here.

Key:
[1] = system: P388 lymphocytic leukaemia; experiment: In vivo antitumor screening against P388 lymphocytic leukaemia in mice; details: Mus musculus, P388, ip, free base, intraperitoneal, NCI protocols, read-out: Optimum T/C; for response vs control in vivo at 100 mg/kg: optimum dose 100 mg/kg; for response vs control in vivo at 240 mg/kg: optimum dose 240 mg/kg; for response vs control in vivo at 200 mg/kg: optimum dose 200 mg/kg
Excerpt: ^a All compounds administered to mice as free bases via
intraperitoneal route according to NCI protocols.

rat liver DHFR = target: T1, rat liver DHFR (Rattus norvegicus, UniProt Q920D2); experiment: Inhibition of rat liver DHFR (spectrophotometric assay; I50 and Ki); assay type: biochemical
T1 construct: from tissue; host or cells: liver of male Wistar rats; homogenate supernatant, pH 5.1 step, dialysed, partially purified
T1 sequence (Q920D2 1-187): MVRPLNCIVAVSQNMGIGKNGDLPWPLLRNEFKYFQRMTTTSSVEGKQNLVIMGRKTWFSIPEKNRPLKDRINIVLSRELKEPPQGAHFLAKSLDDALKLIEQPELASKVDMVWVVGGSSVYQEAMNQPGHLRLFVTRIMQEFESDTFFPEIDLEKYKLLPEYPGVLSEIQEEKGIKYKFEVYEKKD
Protocol: All solutions were prepared on the day previous to the experiment and stored in the dark at 4° C. prior to use.
The stock solutions were diluted, as necessary, immediately before use to produce the required inhibitor concentration.
B.1 Preparation of partially purified DHFR
All further manipulations were performed at 4° C.: the livers (30.7 g) were transferred to a Waring blender to which approximately 8 volumes of water was added (final volume c.a. 300 ml), whereupon the mixture was homogenised for 2 minutes for periods of 30s, allowing 30s between each run to minimise heating. Liver homogenate was centrifuged at approximately 20,000 g for 20 minutes and the pellet was discarded. The supernatant liquid was adjusted to pH 5.1 with dilute acetic acid (1.0 M initially and 0.1 M finally) and after centrifugation at 27,000 g for a further 20 minutes, the clear wine-red solution was transferred to visking tubing (2.5 cm diameter) and dialysed for 12 hours against 0.01 sodium acetate buffer solution. The dialysate was examined and if turbid, centrifuged again at 27,000 g for 20 minutes. The clear preparation was transferred to sterile plastic stoppered tubes (10 ml) and stored at -10° C. prior to use.
B.2. Preparation of reagent solutions
The buffer was kept at 4° C. to prevent bacterial growth and discarded after 3 days.
The solution was maintained at 0° C.
An aqueous solution of NADPH (2 mg.ml^-1, 2.0 mM) was prepared immediately prior to use and again maintained at 0° C.
B.3 Assay for inhibitor activity
Plastic disposable cuvettes were used throughout.
The assay was carried out as follows: NADPH (0.1 ml) and the enzyme preparation (0.1 ml) were incubated at 30° C. for 5 minutes in phosphate buffer (total volume 1.9 ml).
Reference cuvettes were set up containing NADPH, buffer, inhibitor if appropriate and dihydrofolate, but without enzyme (Table A).
Enzyme activity was estimated from the slope of the change of absorbance with time and this was arbitrarily designated as 100% for the uninhibited enzyme.
The remaining inhibitors were selected for I50 determinations and inhibitory activity was evaluated in duplicate at a minimum of four inhibitor concentrations, from which the I50 value was determined by a graphical method.
Compounds selected for inhibition constant (KI) determinations were assayed following an identical method to that described above except that inhibitory activity was measured at a minimum of ten inhibitor concentrations, again in duplicate, from which the appropriate KI values were determined by a Zone B analysis.

[2] = system: L1210 murine leukaemia cells; experiment: In vitro cytotoxicity against L1210 cells; assay type: cell-based; details: Mus musculus
Protocol: In vitro cytotoxicity studies
Cells were seeded routinely every 72 hours at 10^4 cells.ml^-1 and counted as 10^6 cells.ml^-1 prior to each experiment and counts were performed following incubation (5% CO2 in air at full humidity) for 72 hours at 37° C., with the appropriate concentration of drug.

[3] = system: M5076 reticulum cell sarcoma; assay type: in vivo; details: for Death: mouse, in vivo;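 on all read-outs here: mice bearing tumor implanted intramuscularly on day 1, given compound intraperitoneally once a day for 17 days in arachis oil containing 10% DMSO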
Excerpt: Tumor: implanted intramuscularly on day 1
Drug: in 10% DMSO/arachis oil administered daily for
17 days by intraperitoneal route.
*Test/Control assessed at day 24

[4] = Table III, drug concentration necessary to reduce the 72 hour cell count to 50% of control, read-out: IC50, cytotoxicity against L1210 cells in vitro
[5] = Table II, rat liver DHFR, 95% confidence limits, read-out: Ki
[6] = Table IV, 72 hours, read-out: IC50 (L1210 cells)
[7] = Table IV, read-out: I50, rat liver dihydrofolate reductase
[8] = 0.75 mg/kg/day, Test/Control assessed at day 24, i.p.
[9] = 3.125 mg/kg/day, Test/Control assessed at day 24, i.p.
[10] = 6.25 mg/kg/day, Test/Control assessed at day 24, i.p.
[11] = 12.5 mg/kg/day, Test/Control assessed at day 24, i.p.
[12] = Table I, solvent B = 0.1 M hydrochloric acid, read-out: I50, inhibition of rat liver DHFR

CCc1nc(N)nc(N)c1-c1ccc(NC(C)c2ccccc2)c([N+](=O)[O-])c1 (racemic) [Compound 9, 2,4-diamino-6-ethyl-5-(4-(±)-α-methylbenzylamino-3-nitrophenyl)-pyrimidine]
response vs control in vivo at 30 mg/kg ([1]; optimum dose 30 mg/kg): 132%

CCc1nc(N)nc(N)c1-c1ccc(NC)c([N+](=O)[O-])c1 [Compound 1, 2,4-Diamino-5-(4-methylamino-3-nitrophenyl)-6-ethylpyrimidine]
response vs control in vivo at 100 mg/kg [1]: 182%

CCc1nc(N)nc(N)c1-c1ccc(N(C)C)c([N+](=O)[O-])c1 [Compound 3, 2,4-Diamino-5-(4-dimethylamino-3-nitrophenyl)-6-ethylpyrimidine]
response vs control in vivo at 100 mg/kg [1]: 145%

CCCCNc1ccc(-c2c(N)nc(N)nc2CC)cc1[N+](=O)[O-] [Compound 4, 2,4-Diamino-5-(4-n-butylamino-3-nitrophenyl)-6-ethylpyrimidine]
response vs control in vivo at 240 mg/kg [1]: 206% | Ki (rat liver DHFR; Table II, rat liver DHFR, 95% confidence limits, tested as ethanesulphonate salt, read-out: Ki): 0.19 ± 0.05 nM | IC50 [2, 4]: 200 nM

CCc1nc(N)nc(N)c1-c1ccc(NCc2ccccc2)c([N+](=O)[O-])c1 [Compound 5, 2,4-Diamino-5-(4-benzylamino-3-nitrophenyl)-6-ethylpyrimidine]
response vs control in vivo at 240 mg/kg [1]: 126% | IC50 [2, 4]: < 1 nM

CCc1nc(N)nc(N)c1-c1ccc(N(C)Cc2ccccc2)c([N+](=O)[O-])c1 [Compound 6, 2,4-Diamino-6-ethyl-5-(4-N-methylbenzylamino-3-nitrophenyl)pyrimidine]
response vs control in vivo at 480 mg/kg ([1]; optimum dose 480 mg/kg): 205%

CCc1nc(N)nc(N)c1-c1ccc(N(CC)Cc2ccccc2)c([N+](=O)[O-])c1 [Compound 7, 2,4-Diamino-6-ethyl-5-(4-N-ethylbenzylamino-3-nitrophenyl)pyrimidine]
response vs control in vivo at 200 mg/kg [1]: 144% | Ki (rat liver DHFR; [5]): 0.04 ± 0.03 nM

CCc1nc(N)nc(N)c1-c1ccc(NCCc2ccccc2)c([N+](=O)[O-])c1 [Compound 10, 2,4-Diamino-6-ethyl-5-(3-nitro-4-phenethylaminophenyl)-pyrimidine]
response vs control in vivo at 200 mg/kg [1]: 142%

CCc1nc(N)nc(N)c1-c1ccc(N(C)Cc2ccc(C(=O)OC)cc2)c([N+](=O)[O-])c1 [Compound 15, 2,4-Diamino-6-ethyl-5-{4-[N-(4-methoxycarbonylbenzyl)-N-methylamino]-3-nitrophenyl}pyrimidine]
IC50 [2, 6]: 100 nM

CCOCCOC(=O)c1ccc(CN(C)c2ccc(-c3c(N)nc(N)nc3CC)cc2[N+](=O)[O-])cc1 [Compound 16]
IC50 (rat liver DHFR; [7]): 1.5 nM | IC50 [2, 6]: 40 nM

CCc1nc(N)nc(N)c1-c1ccc(N(C)Cc2ccc(OC)cc2)c([N+](=O)[O-])c1 [Compound 17, 2,4-Diamino-6-ethyl-5-{4-[N-(4-methoxybenzyl)-N-methylamino]-3-nitrophenyl}pyrimidine]
IC50 [2, 6]: 70 nM

CCc1nc(N)nc(N)c1-c1ccc(NCc2ccc(OC)cc2)c([N+](=O)[O-])c1 [Compound 18, 2,4-Diamino-6-ethyl-5-{4-[N-(4-methoxybenzyl)amino]-3-nitrophenyl}pyrimidine]
IC50 (rat liver DHFR; [7]): 21 nM | Ki (rat liver DHFR; Table IV, read-out: Ki, rat liver dihydrofolate reductase): 0.088 nM | IC50 [2, 6]: 50 nM

CCc1nc(N)nc(N)c1-c1ccc(N(C)Cc2ccc(C(=O)NC)cc2)c([N+](=O)[O-])c1 [Compound 19, 2,4-Diamino-6-ethyl-5-(4-{N-[4-(N-methylcarbamoyl)benzyl]-N-methylamino}-3-nitrophenyl)pyrimidine]
IC50 [2, 6]: 25 nM | T/C × 100 [3, 8]: 67 | T/C × 100 [3, 9]: 41 | T/C × 100 [3, 10]: 30 | T/C × 100 [3, 11]: 15 | Tumor volume ([3]; ip, 12.5 mg/kg): 443 mm^3

CCc1nc(N)nc(N)c1-c1ccc(N(C)Cc2ccc(C(=O)O)cc2)c([N+](=O)[O-])c1.O [Compound 20, 2,4-Diamino-6-ethyl-5-{4-[N-(4-carboxybenzyl)-N-methylamino]-3-nitrophenyl}pyrimidine monohydrate]
IC50 [2, 6]: 15 nM | T/C × 100 [3, 8]: 100 | T/C × 100 [3, 9]: 107 | T/C × 100 [3, 10]: 89 | T/C × 100 [3, 11]: 100

CCc1nc(N)nc(N)c1-c1ccc(NCc2ccc(Cl)c(Cl)c2)c([N+](=O)[O-])c1 [Compound 23, 2,4-Diamino-5-[4-(3,4-dichlorobenzylamino)-3-nitrophenyl]-6-ethylpyrimidine]
T/C × 100 ([3]; ip, 3.125 mg/kg, 576 h): 48 | T/C × 100 ([3]; ip, 6.25 mg/kg, 576 h): 36 | T/C × 100 ([3]; ip, 12.5 mg/kg, 576 h): 16 | T/C × 100 ([3]; ip, 25 mg/kg, 576 h): < 8 | T/C × 100 ([3]; ip, 50 mg/kg, 576 h): < 8

CCc1nc(N)nc(N)c1-c1ccc(NCc2ccc(C)cc2)c([N+](=O)[O-])c1 [Compound 25, 2,4-Diamino-5-[4-(4-methylbenzylamino)-3-nitrophenyl]-6-ethylpyrimidine]
T/C × 100 ([3]; ip, 3.125 mg/kg, 576 h): 76 | T/C × 100 ([3]; ip, 6.25 mg/kg, 576 h): 44 | T/C × 100 ([3]; ip, 12.5 mg/kg, 576 h): 24 | T/C × 100 ([3]; ip, 25 mg/kg, 576 h): 20 | Death [3]: Dead

CCc1nc(N)nc(N)c1-c1ccc(NCc2ccc(C(F)(F)F)cc2)c([N+](=O)[O-])c1 [Compound 28, 2,4-diamino-5-[3-nitro-4-(4-trifluoromethylbenzylamino)phenyl]-6-ethylpyrimidine]
T/C × 100 ([3]; ip, 3.125 mg/kg, 576 h): 40 | Tumor volume ([3]; ip, 6.25 mg/kg): 454 mm^3 | T/C × 100 ([3]; ip, 6.25 mg/kg, 576 h): 20 | Tumor volume ([3]; ip, 12.5 mg/kg): 265 mm^3 | T/C × 100 ([3]; ip, 12.5 mg/kg, 576 h): 12 | T/C × 100 ([3]; ip, 25 mg/kg, 576 h): < 8 | Death [3]: Dead

CCCCOc1ccc(-c2c(N)nc(N)nc2CC)cc1[N+](=O)[O-] [OBu^n]
IC50 (rat liver DHFR; Table I, solvent A = water, tested as ethanesulphonate salt, read-out: I50, inhibition of rat liver DHFR): 60 nM | Ki (rat liver DHFR; [5]): 0.08 ± 0.06 nM

CCOc1ccc(-c2c(N)nc(N)nc2CC)cc1[N+](=O)[O-] [OEt]
IC50 (rat liver DHFR; [12]): 140 nM

CCc1nc(N)nc(N)c1-c1ccc(OC)c([N+](=O)[O-])c1 [OMe]
response vs control in vivo at 120 mg/kg ([1]; optimum dose 120 mg/kg): 189% | IC50 (rat liver DHFR; [12]): 180 nM

Cc1nc(N)nc(N)c1-c1ccc(Cl)c(Cl)c1 [metoprine, reference compound]
response vs control in vivo at 50 mg/kg ([1]; optimum dose 50 mg/kg): 140%
